According to patent US6878738B1, “Anti-inflammatory oxo derivatives and hydroxy derivatives of pyrrolizines, and their pharmaceutical use” (Merckle GmbH, priority 1999, dated 2005):
Read-outs that look alike come from different tables or passages of the source.

Columns and labels:
Cyclooxygenase-1 = target: T1, Cyclooxygenase-1 (Homo sapiens, UniProt P23219); assay: Inhibition of cyclooxygenase-1: prostaglandin E2 formed from human platelets after calcium ionophore, ELISA; assay type: cell-based; details: PGE2, read-out: IC50 COX-1
T1 construct: endogenous in cells; host or cells: human platelets isolated over a Percoll gradient
T1 sequence (P23219 24-599): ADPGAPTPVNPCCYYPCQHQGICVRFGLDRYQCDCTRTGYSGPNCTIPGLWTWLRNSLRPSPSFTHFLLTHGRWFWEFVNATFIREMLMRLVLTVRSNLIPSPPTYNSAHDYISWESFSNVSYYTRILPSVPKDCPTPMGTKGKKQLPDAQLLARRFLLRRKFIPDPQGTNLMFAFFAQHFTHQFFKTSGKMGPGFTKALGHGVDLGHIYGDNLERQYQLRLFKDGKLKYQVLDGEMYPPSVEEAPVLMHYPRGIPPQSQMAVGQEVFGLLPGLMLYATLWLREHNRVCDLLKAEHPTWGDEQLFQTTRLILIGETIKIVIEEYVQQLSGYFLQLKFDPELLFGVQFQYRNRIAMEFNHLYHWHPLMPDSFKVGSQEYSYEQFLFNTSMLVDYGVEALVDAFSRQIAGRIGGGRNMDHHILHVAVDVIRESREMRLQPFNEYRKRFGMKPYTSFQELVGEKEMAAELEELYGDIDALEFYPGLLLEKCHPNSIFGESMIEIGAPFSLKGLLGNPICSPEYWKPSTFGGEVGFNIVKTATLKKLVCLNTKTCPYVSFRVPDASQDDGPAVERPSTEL
Experimental: Test System for Determination of the Inhibition of Cyclooxygenase-1
In this test system, the amount of prostaglandin E2 formed from human platelets after addition of calcium ionophore is determined by means of ELISA. In this process, the platelets are obtained after centrifugation over a discontinuous Percoll® gradient. The enzyme reaction and the determination of the metabolites formed is carried out in principle as in the determination of 5-lipoxygenase inhibition. Differences exist with respect to the incubation time. Furthermore, the addition of a thromboxane synthase inhibitor is necessary (see Arch. Pharm. Med. Chem. 330, 307-312 (1997)).

5-lipoxygenase = target: T2, 5-lipoxygenase (Homo sapiens, UniProt P09917); assay: Inhibition of 5-lipoxygenase: LTB4 formation in human granulocytes stimulated with calcium ionophore A 23187, ELISA; assay type: cell-based; details: read-out: IC50 5-LO
T2 construct: Human granulocytes are used as a source of 5-lipoxygenase; endogenous in cells; host or cells: human granulocytes isolated from heparinised blood
T2 sequence (P09917 1-674): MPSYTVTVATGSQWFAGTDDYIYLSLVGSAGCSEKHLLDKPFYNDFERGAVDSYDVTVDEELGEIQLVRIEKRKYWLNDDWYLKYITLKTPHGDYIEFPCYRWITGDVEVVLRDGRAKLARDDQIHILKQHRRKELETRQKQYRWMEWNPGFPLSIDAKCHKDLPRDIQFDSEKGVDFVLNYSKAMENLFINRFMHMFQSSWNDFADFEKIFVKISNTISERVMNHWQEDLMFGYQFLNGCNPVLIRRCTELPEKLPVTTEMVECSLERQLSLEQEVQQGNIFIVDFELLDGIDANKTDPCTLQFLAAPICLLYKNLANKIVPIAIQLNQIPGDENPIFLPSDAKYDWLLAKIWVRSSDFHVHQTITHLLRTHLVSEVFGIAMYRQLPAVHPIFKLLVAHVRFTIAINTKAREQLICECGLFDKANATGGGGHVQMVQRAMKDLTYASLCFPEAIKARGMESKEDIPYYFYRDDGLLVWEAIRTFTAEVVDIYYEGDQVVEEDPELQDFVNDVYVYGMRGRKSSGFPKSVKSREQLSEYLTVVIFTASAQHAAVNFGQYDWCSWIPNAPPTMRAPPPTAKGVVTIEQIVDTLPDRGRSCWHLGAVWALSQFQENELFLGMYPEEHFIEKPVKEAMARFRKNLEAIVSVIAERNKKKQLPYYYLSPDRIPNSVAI
Experimental: Test System for Determination of the Inhibition of 5-Lipoxygenase
Human granulocytes are used as a source of 5-lipoxygenase. By means of stimulation with calcium ionophore A 23187, LTB4 (leukotriene B4) is formed from endogenous arachidonic acid. The granulocytes are isolated and the enzyme reaction is carried out according to known processes (see Arch. Pharm. Med. Chem. 330, 307-312 (1997)).
The blood, protected from clotting with heparin, is centrifuged over a discontinuous Percoll® gradient and the granulocyte layer is removed by pipette. After lysis of the erythrocytes, the granulocytes are washed a number of times and then adjusted to a specific cell count. The enzyme reaction is then started in the presence or absence of the test substance after addition of Ca^2+ using calcium ionophore […]. The synthesis of the leukotrienes is stopped after 1.5 minutes. The samples are centrifuged off and the supernatant is diluted. LTB4 is determined quantitatively by means of ELISA.

[1] = Determination of the partition coefficient n-octanol/water (OECD Guideline No. 117); assay type: physicochemical
Experimental: Determination of the Partition Coefficient
The partition coefficient P of the compounds was determined in the system n-octanol/water according to the OECD Guidline for Testing Chemicals, No. 117.

[2] = target: T3, COX2 (from sheep placenta) (Ovis aries, UniProt P79208); assay: Inhibition of cyclooxygenase-2: COX2 stimulated with arachidonic acid, PGE2 by ELISA; assay type: biochemical; details: arachidonic acid 5 μM, read-out: IC50 COX-2
T3 construct: COX2 (from sheep placenta) is preincubated with test substance at 4° C. for 10 min; from tissue; host or cells: sheep placenta
T3 sequence (P79208 17-603): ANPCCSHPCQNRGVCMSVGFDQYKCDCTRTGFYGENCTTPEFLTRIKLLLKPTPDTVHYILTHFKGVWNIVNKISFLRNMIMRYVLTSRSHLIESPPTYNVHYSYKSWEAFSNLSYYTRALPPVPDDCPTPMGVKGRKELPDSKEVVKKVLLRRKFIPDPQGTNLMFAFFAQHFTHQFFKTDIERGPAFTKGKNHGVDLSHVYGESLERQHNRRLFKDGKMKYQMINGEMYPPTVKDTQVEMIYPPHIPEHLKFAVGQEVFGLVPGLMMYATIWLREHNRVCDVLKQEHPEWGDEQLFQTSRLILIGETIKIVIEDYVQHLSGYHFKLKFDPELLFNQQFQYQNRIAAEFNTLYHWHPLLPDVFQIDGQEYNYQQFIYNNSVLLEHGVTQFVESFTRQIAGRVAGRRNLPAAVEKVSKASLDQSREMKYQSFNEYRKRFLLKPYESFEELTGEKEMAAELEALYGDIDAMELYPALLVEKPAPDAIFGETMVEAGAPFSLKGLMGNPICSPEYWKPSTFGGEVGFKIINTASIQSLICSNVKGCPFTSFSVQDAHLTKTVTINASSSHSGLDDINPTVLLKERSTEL
Experimental: Test System for Determination of the Inhibition of Cyclooxygenase-2
COX2 (from sheep placenta) is preincubated with test substance at 4° C. for 10 min, then stimulated with arachidonic acid (5 μM) at 25° C. for 10 min. […] The determination is carried out at 3 dilutions (10^−7, 10^−6, 10^−5 M), and the PGE2 concentrations are quantified by means of ELISA (see Mitchell, J. A. et al. Proc. Nat. Acad. Sci 90: 11693-11697 (1993)).

Structure (SMILES)	IC50 (Cyclooxygenase-1)	IC50 (5-lipoxygenase)	chromatographic logP ([1]; pH 2.5, read-out: Log P pH 2.5)	chromatographic logP ([1]; pH 7.5, read-out: Log P pH 7.5)	melting point	IC50 [2]
CC1(C)Cn2cc(-c3ccc(Cl)cc3)c(-c3ccccc3)c2C1=O [Example 6, 6-(4-Chlorophenyl)-2,3-dihydro-2,2-dimethyl-1-oxo-7-phenyl-1H-pyrrolizine]	950 nM	230 nM	5	5.1	–	–
CCOC(=O)C(=O)c1c(-c2ccc(Cl)cc2)c(-c2ccccc2)c2n1CC(C)(C)C2O (centres unmarked) [Example 11, Ethyl 6-(4-Chlorophenyl)-2,3-dihydro-1-hydroxy-2,2-dimethyl-7-phenyl-1H-pyrrolizin-5-yl-2-oxoacetate]	–	–	–	–	193 °C	–
COC1c2c(-c3ccccc3)c(-c3ccc(Cl)cc3)c(CC(=O)O)n2CC1(C)C (centres unmarked) [Example 14, 6-(4-Chlorophenyl)-2,3-dihydro-1-methoxy-2,2-dimethyl-7-phenyl-1H-pyrrolizin-5-ylacetic Acid]	60 nM	–	4.5	1.7	–	–
Cc1c(-c2ccc(Cl)cc2)c(-c2ccccc2)c2n1CC(C)(C)C2O (centres unmarked) [Example 15, 6-(4-Chlorophenyl)-2,3-dihydro-1-hydroxy-2,2,5-trimethyl-7-phenyl-1H-pyrrolizine]	–	–	–	–	133 °C	–
COC1c2c(-c3ccccc3)c(-c3ccc(Cl)cc3)c(C)n2CC1(C)C (centres unmarked) [Example 16, 6-(4-Chlorophenyl)-2,3-dihydro-1-methoxy-2,2,5-trimethyl-7-phenyl-1H-pyrrolizine]	500 nM	–	5.1	6.7	–	7500 nM
CC1(C)Cn2c(CC(=O)O)c(-c3ccc(Cl)cc3)c(-c3ccccc3)c2C1=O [Example 18, 6-(4-Chlorophenyl)-2,3-dihydro-2,2-dimethyl-1-oxo-7-phenyl-1H-pyrrolizin-5-ylacetic Acid]	46 nM	–	3.3	1.1	–	2100 nM
CC1(C)Cc2c(-c3ccccc3)c(-c3ccc(Cl)cc3)c(OC(=O)c3ccccc3)n2C1 [Example 26, 2-(4-Chlorophenyl)-6,6-dimethyl-1-phenyl-6,7-dihydro-5H-pyrrolizin-3-yl Benzoate]	–	–	–	–	193 °C	–
CC1(C)Cc2c(-c3ccccc3)c(-c3ccc(Cl)cc3)c(CC(=O)O)n2C1 [ML 3000, reference compound]	210 nM	180 nM	4.8	1.9	–	4700 nM
